From patent US4826873A, “2,3-dihydroxy-3-phenyl-N-(2-phenyl-ethyl)-propionic acid amides derivatives thereof” (priority 1986, dated 1989)

Legend:
[1] = tested on: barbital sleeping time in mice; assay: Barbital sleeping time in mice (Table 8); assay type: in vivo, mice (male Kunming strain)
Procedure: (§1) Male Kunming strain mice weighing 18-22 grams were used throughout the experiments. The compound to be tested was suspended in 5% Tween 80 and given orally by gavage. The vehicle of 5% Tween 80 solution was administered to control mice via the same route. In the vitro experiments,the compound was dissolved in dimethylformamide and added directly into the incubation mixture.
In another experiment, mice were given a dose of 250 mg/kg of the compound. […] The sleeping time was estimated by recording the interval of disappearance and recovery of righting reflex. […] It means that the prolongation of pentobarbital sleeping time by the compound was due to the inhibition of liver drug metabolism enzyme.

[2] = tested on: CCl4 hepatotoxicity in mice; assay: Therapeutic effect on CCl4 (0.15%) hepatotoxicity in mice (Table 2); assay type: in vivo, mice (male Kunming strain)
Procedure: as §1
(§2) The parameters adopted for hepatotoxicicity included serum tranaminase (SGPT), liver triglycerides, and pathological examination of liver tissues. The liver lesions were scored mainly by the extent of inflammation and necrosis and graded from 0 to 4.
In the experiments of anti-CCl4 hepatotoxicity, mice were first injected 10 ml/kg of 0.15% CCl4 in vegetable oil every other day for three doses. The treatment of mice with the compound (250 mg/kg daily) started from the second to fifth day after the first injection of CCl4. The determination of SGPT and pathological examination of liver tissues were performed on day 7 of the experiment.

[3] = tested on: CCl4-initiated lipid peroxidation of liver microsomes (MDA); assay: CCl4-initiated lipid peroxidation of liver microsomes, MDA formation in vitro (Table 6); assay type: biochemical, mice (phenobarbital-induced); conditions: 1 mM compound
Procedure: as §1
(§3) CCl4 hepatotoxicity has been considered to be due to formation of free radicals which initiate lipid peroxidation or covalent binding to macromolecules of microsomes. Thus, the structures and function of cell membranes were destroyed. The effect of the compound on CCl4 induced lipid peroxidation (malonic dialdehyde, MDA, in vitro, and diene conjugates in vivo) and ^14 CCl4 covalent binding to lipids and proteins of microsomes were investigated.
MDA formation: The compound was pre-incubated with NADPH-reduced liver microsomes from phenobarbital-induced mice at 37° C. for 15 minutes, 10 ul of CCl4 (diluted with 20 volume of ethanol) was added into the incubation mixture, reincubated for 20 minutes. The production of MDA was determined by the method of thiobarbituric acid.

microsomal lipids = assay: 14CCl4 covalent binding to microsomal lipids; assay type: biochemical, mice; conditions: 1 mM, NADPH-reduced liver microsomes
Procedure: as §1, §3
(§4) The condition of incubation was similar to that of MDA production. The compound was pre-incubated with NADPH-reduced liver microsomes for 10 minutes. The final concentration of the compound was 1 mM. ^14 CCl4 0.5 uci was added to the incubation mixture. Incubation was continued for another 60 minutes. The radio-activity of ^14 CCl4 in microsomal lipids and proteins was separated by the method of extraction of diene conjugates and counted by liquid scintillation.

[4] = tested on: thioacetamide hepatotoxicity in mice; assay: Protective action against thioacetamide hepatotoxicity in mice (Table 4); assay type: in vivo, mice (male Kunming strain)
Procedure: as §1, §2
In the experiment of thioacetamide hepatotoxicity, mice were treated according to the procedure of CCl4 intoxication as described above except that thioacetamide 50 mg/kg was injected instead of CCl4.

aminopyrine demethylase = assay: Hepatic aminopyrine demethylase in mice (Table 7); assay type: in vivo, mice (male Kunming strain)
Procedure: as §1
(§5) The liver microsomal cytochrome P-450 plays a key role in the detoxification of xenobiotics. […] Mice were administered 250 mg/kg of the compound once daily for 3 days. The control mice received the vehicle. The mice were killed after fasting overnight. Liver microsomes were prepared and microsomal monooxygenases were determined.

liver = assay: Liver weight and microsomal protein content (Table 7); assay type: in vivo, mice (male Kunming strain)
Procedure: as §1, §5

cytochrome b5 = assay: Hepatic cytochrome b5 in mice (Table 7); assay type: in vivo, mice (male Kunming strain)
Procedure: as §1, §5

[5] = tested on: hepatic microsomal cytochrome P-450; assay: Induction of hepatic microsomal cytochrome P-450 in mice (Table 7); assay type: in vivo, mice (male Kunming strain); conditions: for hepatic cytochrome P-450 (in words): 250 mg/kg once daily, 3 days
Procedure: as §1, §5
(§6) In another experiment, mice were given a dose of 250 mg/kg of the compound. Sodium pentobarbital (50 mg/kg) was injected ip 1 and 24 h after administration of the compound. The sleeping time was estimated by recording the interval of disappearance and recovery of righting reflex. […] It means that the prolongation of pentobarbital sleeping time by the compound was due to the inhibition of liver drug metabolism enzyme.

[6] = tested on: pentobarbital sleeping time in mice; assay: Pentobarbital sleeping time in mice (Table 8); assay type: in vivo, mice (male Kunming strain); conditions: for Sleeping time (X ± SE): 250 mg/kg, 10 per group, control 71 ± 7, P <0.01, in min (unit assumed)
Procedure: as §1, §6

[7] = tested on: NADPH-cytochrome c reductase; assay: Hepatic NADPH-cytochrome c reductase in mice (Table 7); assay type: in vivo, mice (male Kunming strain)
Procedure: as §1, §5

microsomal proteins = assay: 14CCl4 covalent binding to microsomal proteins; assay type: biochemical, mice; conditions: 1 mM, NADPH-reduced liver microsomes
Procedure: as §1, §3, §4

[8] = tested on: acetaminophen hepatotoxicity in mice; assay: Anti-acetaminophen hepatotoxicity experiment in mice; assay type: in vivo, mice (male Kunming strain); conditions: 250 mg/kg two doses first day and same dose second day; acetaminophen 150 mg/kg ip
Procedure: as §1, §2
In the anti-acetaminophen hepatotoxicity experiment, mice received two doses (250 mg/kg) of the compound on the first day and the same dose on the second day. A dose of 150 mg/kg of acetaminophen was injected ip 6 h after the last dose of the compound, SGPT was determined and liver tissues were examined 20 h after acetaminophen injection.

CCl4 intoxicated mice = assay: Effect on SGPT level of CCl4-intoxicated mice (pretreatment, Table 1); assay type: in vivo, mice (male Kunming strain)
Procedure: as §1, §2
Mice were divided into several groups.
The control group received the vehicle. The other groups were given two doses of the compound (250 mg/kg) at an interval of 8 h, respectively. All the mice were injected ip 10 ml/kg of 0.1% CCl4 in vegetable oil 24 h after the last administration of the compound. The mice were fasted for 16 h and sacrificed by decapitation. SGPT and liver lipids were determined. A piece of liver was processed into sectins for pathological examination.

[9] = tested on: benzo(a)pyrene hydroxylase; assay: Hepatic AHH / benzo(a)pyrene hydroxylase in mice (Table 7); assay type: in vivo, mice (male Kunming strain)
Procedure: as §1, §5

[10] = tested on: diene conjugates in liver microsomes of CCl4-intoxicated mice; assay: CCl4-initiated lipid peroxidation, diene conjugates in vivo (Table 6); set-up: species or system mice (male Kunming strain); conditions: 250 mg/kg, 1 ml/kg CCl4
Procedure: as §1, §3
Diene conjugates: Mice were given two doses of 250 mg/kg of the compound on the first day and followed by the same dose on the second day and then received an injection of 1 ml/kg of CCl4. The mice were killed 1 h after the CCl4 injection. The diene conjugates in liver microsomes were extracted with chloroform-methanol (2:1) and washed with methanol 0.9% NaCl solution. The absorption of diene conjugates in the chloroform layer at 243 nm was measured with spectrophotometer.

[11] = tested on: serum and liver transaminase (GPT); assay: Effect on serum and liver transaminase (GPT) levels of normal mice (Table 5); assay type: in vivo, mice (male Kunming strain)
Procedure: as §1
Groups of mice were administered the vehicle or 250 mg/kg of the compound once daily for 7 consecutive days. The serum and liver GPT were determined 24 h after the last dose administration.

[12] = tested on: CCl4 hepatotoxicity in mice; assay: Protective action against CCl4 (0.1%) hepatotoxicity in mice (Table 3); assay type: in vivo, mice (male Kunming strain); conditions: for SGPT (± SE): two doses, 9 per group, control 3016 ± 23; for SGPT (± SE) / Liver lipids: CCl4 0.1% 10 ml/kg i.p.; for Liver lipids: control 21.0 ± 4.2; for decreasing SGPT level and liver injuries (in words): CCl4 0.1% ip
Procedure: as §1, §2
In another experiment, mice were first administered two doses of the compound and injected ip 10 ml/kg of 0.1% CCl4 in vegetable oil 24 h after administration of the second dose.

[13] = listed as compound of the general formula (I), R1 =H, R2 =CH3

## CN(CCc1ccccc1)C(=O)C(O)C(O)c1ccccc1 (stereo not shown) [Compound, 2,3-dihydroxy-N-methyl-3-phenyl-N-(2-phenylethyl)-propionic acid amide]
[1]; 1 h before barbital 200 mg/kg, 10 per group, control 197 ± 27, P >0.05
  Sleeping time (X ± SE): 172 ± 13
[1]; prior administration of compound
  barbital sleeping time (in words): did not affect sleeping time
[2]; 250 mg/kg daily, day 7 examination
  effect on liver lesions (in words): no effect on liver lesions
[2]; 250 mg/kg daily, second to fifth day after first CCl4
  SGPT lowering action (in words): significant SGPT lowering action
[2]; 250 mg/kg/day × 4, CCl4 0.15% in vegetable oil 10 ml/kg × 3, 8 per group, control 2695 ± 110, P <0.01
  SGPT (x ± SE): 1801 ± 312 unit %
[3]
  Inhibition of MDA: 16.3%
  MDA production / lipid peroxidation of microsomes induced by CCl4 (in words): inhibited MDA production initiated by CCl4 in vitro
[3]; [13]
  MDA production / lipid peroxidation of microsomes induced by CCl4 (in words): could inhibit lipid peroxidation
[3]; number of determinations 3, control 35.5
  MDA: 29.7 ± 4 OD × 100/1.5 mg
Microsomal lipids
  covalent binding of 14CCl4 to microsomal lipids (in words): not inhibited
[4]; 250 mg/kg × 2, thioacetamide 50 mg/kg ip, 9 per group, control 1696 ± 231, footnote <0.05
  SGPT (± SE): 1045 ± 166 unit %
[4]; 250 mg/kg × 2, thioacetamide 50 mg/kg ip, control 61 ± 11.7
  Liver lipids (± SE): 59 ± 11.3 mg/g
[4]; mouse, in vivo
  protection against thioacetamide hepatotoxicity (conclusion, in words): protected against thioacetamide hepatotoxicity
[4]; thioacetamide 50 mg/kg
  effect on SGPT levels, thioacetamide hepatotoxicity (in words): markedly lowered the SGPT levels
Aminopyrine demethylase; 250 mg/kg day × 3, control 81 ± 63, P <0.01
  Aminopyrine demethylase: 107 ± 5.8 nmol HCHO/min/mg protein
Aminopyrine demethylase; 250 mg/kg once daily, 3 days
  aminopyrine demethylase activity (in words): increased significantly
liver; 250 mg/kg day × 3, 6 per group, control 4.0 ± 0.2, P >0.05
  Liver weight: 4.3 ± 0.2 g %
liver; 250 mg/kg day × 3, control 6.3 ± 0.3, P >0.05
  Microsomal protein: 7.0 ± 0.5 mg/g liver
liver; 250 mg/kg once daily, 3 days
  increase of liver size (in words): not seen
  increase of microsomal protein content (in words): not seen
Cytochrome b5; 250 mg/kg day × 3, control 0.15 ± 0.01, P >0.05
  Cytochrome b5: 0.16 ± 0.016 nmol/mg protein
Cytochrome b5; 250 mg/kg once daily, 3 days
  cytochrome b5 (in words): increased significantly
[5]; 250 mg/kg day × 3, control 0.87 ± 0.07, P <0.01
  Cytochrome P-450: 1.23 ± 0.06 nmol/mg protein
[5]
  hepatic cytochrome P-450 (in words): increased significantly
[5]; [13]
  hepatic cytochrome P-450 (in words): inducing action on hepatic cytochrome p-450
[5]; concluded from barbiturate sleeping times
  biphasic actions on hepatic microsomal cytochrome p-450 (in words): inhibition followed by induction
[6]; 1 h before pentobarbital 50 mg/kg ip
  Sleeping time (X ± SE): 132 ± 13
[6]; 24 h before pentobarbital 50 mg/kg ip
  Sleeping time (X ± SE): 45 ± 6
[6]; compound 1 h prior to pentobarbital
  pentobarbital sleeping time (in words): prolonged markedly
[6]; compound 24 h before pentobarbital
  pentobarbital sleeping time (in words): shortened significantly
[7]; 250 mg/kg day × 3, control 103 ± 2.5, P <0.01
  NADPH-cytochrome C reductase: 148 ± 2.5 nmol cytochrome c reduced/min/
[7]; 250 mg/kg once daily, 3 days
  NADPH-cytochrome c reductase activity (in words): increased significantly
Microsomal proteins
  covalent binding of 14CCl4 to microsomal proteins (in words): not inhibited
[8]
  anti-acetaminophen hepatotoxicity (in words): inactive
CCl4 intoxicated mice; 250 mg/kg × 2, oral, 0.1% CCl4 10 ml/kg ip 24 h later, 9 per group, control 1678 ± 261, P <0.05
  SGPT (X ± SE): 727 ± 266 unit %
CCl4 intoxicated mice; 250 mg/kg × 2, CCl4 ip
  effect on elevated SGPT of CCl4-intoxicated mice (in words): significantly decreased the elevated SGPT
CCl4 intoxicated mice; mouse, in vivo
  hepatoprotective action against CCl4 (conclusion, in words): has hepatoprotective action against CCl4
[9]; 250 mg/kg day × 3, control 2.6 ± 0.4, P <0.01
  AHH: 6.2 ± 0.42 nmol/min/mg protein
[9]; 250 mg/kg once daily, 3 days
  benzo(a)pyrene hydroxylase activity (in words): increased significantly
[10]; two doses first day and same dose second day
  diene conjugates production in livers (in words): would not inhibit diene conjugates production
[10]; in vivo, number of determinations 8, control 55.8 ± 2.3
  Diene conjugates: 54.8 ± 3.3 OD × 100/g liver
[11]; 250 mg/kg once daily, 7 days
  SGPT level of normal mice (in words): slightly higher than that of the control but the difference was not significant
[11]; normal mice, 250 mg/kg/day × 7, 8 per group, control 217 ± 17.5
  SGPT (± SE): 272 ± 27.8 unit %
[11]; normal mice, 250 mg/kg/day × 7, 8 per group, control 260 ± 11.6
  LGPT (liver GPT, ± SE): 234 ± 13.6 unit %
[12]; 125 mg/kg
  SGPT (± SE): 2727 ± 162 unit %
  Liver lipids: 21.0 ± 3.8 mg/g
  decreasing SGPT level and liver injuries (in words): without effect
[12]; 250 mg/kg, footnote <0.01
  SGPT (± SE): 2270 ± 221 unit %
[12]; 250 mg/kg
  Liver lipids: 22.5 ± 5.5 mg/g
  decreasing SGPT level and liver injuries (in words): effective for decreasing SGPT level and liver injuries
[12]; 250 mg/kg, graded from 0 to 4, control 1.70
  Liver lesions, Inflammation (Grade): 0.16 Grade
[12]; 250 mg/kg, graded from 0 to 4, control 2.33
  Liver lesions, Necrosis (Grade): 0.72 Grade
